EP0539170A1, “Benzodiazepine derivatives and their use as antagonists of cholecystokinin and/or gastrin receptors” (priority 1991, dated 1993)

Target: T1, CCK Receptor (Pancreas) (Rattus norvegicus, UniProt P30551)
T1 construct: The whole pancreas was dissected free of fat tissue and was homogenized; from tissue; host or cells: rat pancreas membrane homogenate
T1 sequence (P30551 1-444): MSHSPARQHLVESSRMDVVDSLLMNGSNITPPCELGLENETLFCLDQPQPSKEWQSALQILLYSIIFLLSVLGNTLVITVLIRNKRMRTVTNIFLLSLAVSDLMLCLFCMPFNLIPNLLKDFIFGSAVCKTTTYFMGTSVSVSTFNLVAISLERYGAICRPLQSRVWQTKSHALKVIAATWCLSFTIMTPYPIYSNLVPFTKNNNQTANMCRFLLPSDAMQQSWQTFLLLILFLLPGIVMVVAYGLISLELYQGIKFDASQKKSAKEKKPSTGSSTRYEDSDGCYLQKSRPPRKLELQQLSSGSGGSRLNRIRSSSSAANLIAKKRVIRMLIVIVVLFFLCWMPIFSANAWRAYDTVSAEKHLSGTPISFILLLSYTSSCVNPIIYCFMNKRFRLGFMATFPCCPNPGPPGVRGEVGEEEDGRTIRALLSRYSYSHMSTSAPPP
Assay: CCK Receptor Binding (Pancreas), inhibition of specific 125I-CCK-8 binding
Design: species or system Sprague-Dawley rats
Details: rat whole pancreas membranes; 50 pM 125I-CCK-8; 25°C for 2 hours
Protocol: CCK-8 sulphated was radiolabelled with ¹²⁵I-Bolton Hunter reagent (2000 Ci/mmole). Receptor binding was performed according to Chang and Lotti (Proc. Natl. Acad. Sci. 83, 4923-4926, 1986) with minor modifications.
Male Sprague-Dawley rats (150-200g) were sacrificed by decapitation. The whole pancreas was dissected free of fat tissue and was homogenized in 25 volumes of ice-cold 10 mM N-2-hydroxyethyl-piperazine-N′-2-ethane sulphonic acid (HEPES) buffer with 0.1% soya bean trypsin inhibitor (pH 7.4 at 25°C) with a Kinematica Polytron. The homogenates were centrifuged at 47,800 g for 10 min. Pellets were resuspended in 10 volumes of binding assay buffer (20mM (HEPES)), 1mM ethylene glycol-bis-(β-aminoethylether-N,N′-tetraacetic acid) (EGTA), 5mM MgCl₂, 150 mM NaCl, bacitracin 0.25 mg/ml, soya bean trypsin inhibitor 0.1 mg/ml, and bovine serum albumin 2 mg/ml pH 6.5 at 25°C) using a Teflon (trademark) homogenizer, 15 strokes at 500 rpm. The homogenate was further diluted in binding assay buffer to give a final concentration of 0.5 mg original wet weight/1 ml buffer. […] All assays were run in duplicate. The reaction mixtures were incubated at 25°C for 2 hours and the reaction terminated by rapid filtration (Brandell 24 well cell harvester) over Whatman GF/C filters, washing 3 x 4 mls with ice-cold 100 Mm NaCl. The radioactivity on the filters was counted with a LKB gamma counter.
Drug displacement studies were performed with at least 10 concentrations of compounds of Formula I and the IC₅₀ values were determined by regression analysis IC₅₀ refers to the concentration of the compound required to inhibit 50% of specific binding of ¹²⁵I-CCK-8.

| SMILES | IC50 |
| --- | --- |
| Cc1cccc(NC(=O)NC2N=C(N3CCCC3)c3ccccc3N(C)C2=O)c1 (racemic) [Example 2, N-[3(R,S)-2.3-Dihydro-1-methyl-2-oxo-5-(pyrrolidin-1-yl)-1H-1,4-benzodiazepin-3-yl] N′-[3-methylphenyl] urea] | 612 nM |
| Cc1cccc(NC(=O)NC2N=C(N3CCOCC3)c3ccccc3N(C)C2=O)c1 (racemic) [Example 3, N-[3(R,S)-2,3-Dihydro-1-methyl-5-(morpholin-4-yl)-2-oxo-1H-1,4-benzodiazepin-3-yl] N′-[3-methylphenyl] urea] | 505 nM |
| Cc1cccc(NC(=O)NC2N=C(N3CCN(C)CC3)c3ccccc3N(C)C2=O)c1 (racemic) [Example 4, N-[3(R,S)-2,3-Dihydro-1-methyl-5-(4-methylpiperazin-1-yl-2-oxo-1H-1,4-benzodiazepin-3-yl] N′-[3-methylphenyl]urea] | 4120 nM |
| CCc1cccc(NC(=O)NC2N=C(N3CCN(C)CC3)c3ccccc3N(C)C2=O)c1 (racemic) [Example 5, N-[3(R,S)-2,3-Dihydro-1-methyl-5-(4-methylpiperazin-1-yl)-2-oxo-1H-1,4-benzodiazepin-3-yl] N′-[3-ethylphenyl] urea] | 4320 nM |
| Cc1ccc(NC(=O)NC2N=C(N3CCN(C)CC3)c3ccccc3N(C)C2=O)cc1 (racemic) [Example 6, N-[3(R,S)-2,3-Dihydro-1-methyl-5-(4-methylpiperazin-1-yl-2-oxo-1H-1,4-benzodiazepin-3-yl] N′-[4-methylphenyl]urea] | > 3000 nM |
| CN1CCN(C2=NC(NC(=O)Nc3ccc(Cl)cc3)C(=O)N(C)c3ccccc32)CC1 (racemic) [Example 7, N-[3(R,S)-2,3-Dihydro-1-methyl-5-(4-methylpiperazin-1-yl-2-oxo-1H-1,4-benzodiazepin-3-yl] N′-[4-chlorophenyl]urea] | > 3000 nM |
| Cc1cccc(NC(=O)NC2N=C(N3CCNCC3)c3ccccc3N(C)C2=O)c1 (racemic) [Example 9, N-[3(R,S)-2,3-Dihydro-1-methyl-2-oxo-5-(piperazin-1-yl)-1H-1,4-benzodiazepin-3-yl]-N′-[3-methylphenyl] urea] | > 3000 nM |
| COc1cccc(NC(=O)NC2N=C(N3CCN(C)CC3)c3ccccc3N(C)C2=O)c1 (racemic) [Example 10, N-[3(R,S)-2,3-Dihydro-1-methyl-5-(4-methylpiperazin-1-yl)-2-oxo-1H-1,4-benzodiazepin-3-yl]-N#MIN#-[3-methoxyphenyl] urea] | 900 nM |
| CN1CCN(C2=NC(NC(=O)Nc3cccc(O)c3)C(=O)N(C)c3ccccc32)CC1 (racemic) [Example 11, N-[3(R,S)-2,3-Dihydro-1-methyl-5-(4-methylpiperazin-1-yl)-2-oxo-1H-1,4-benzodiazepin-3-yl]-N#MIN#-[3-hydroxyphenyl] urea] | 2300 nM |
| CCCN1C(=O)C(NC(=O)Nc2cccc(OC)c2)N=C(N2CCN(C)CC2)c2ccccc21 (racemic) [Example 12, N-[3(R,S)-2,3-Dihydro-5-(4-methylpiperazin-1-yl)-2-oxo-1-propyl-1H-1,4-benzodiazepin-3-yl]-N#MIN#-[3-methoxyphenyl] urea] | > 3000 nM |
| CN1CCN(C2=NC(NC(=O)Nc3cccc(-c4nnn(C)n4)c3)C(=O)N(C)c3ccccc32)CC1 (racemic) [Example 13, N-[3(R,S)-2,3-Dihydro-1-methyl-2-oxo-5-(4-methylpiperazin-1-yl)-1H-1,4-benzodiazepin-3-yl]-N′-[3-(2-methyltetrazol-5-yl)phenyl] urea] | > 3000 nM |
| CN1CCN(C2=NC(NC(=O)Nc3cccc(-c4nnnn4C)c3)C(=O)N(C)c3ccccc32)CC1 (racemic) [Example 14, N-[3(R,S)-2,3-Dihydro-1-methyl-2-oxo-5-(4-methylpiperazin-1-yl)-1H-1,4-benzodiazepin-3-yl)-N′-[3-(1-methyltetrazol-5-yl)phenyl] urea] | > 3000 nM |
| CN1CCN(C2=NC(NC(=O)Nc3cccc(C(=O)N(C)C)c3)C(=O)N(C)c3ccccc32)CC1 (racemic) [Example 15, N-[3(R,S)-2,3-Dihydro-1-methyl-2-oxo-5-(4-methylpiperazin-1-yl)-1H-1,4-benzodiazepin-3-yl]-N′-[3-(N,N-dimethylcarboxamido)phenyl] urea] | > 3000 nM |
| Cc1cccc(NC(=O)NC2N=C(N3CCCNCC3)c3ccccc3N(C)C2=O)c1 (racemic) [Example 16, N-[3(R,S)-2,3-Dihydro-5-(homopiperazin-1-yl)-1-methyl-2-oxo-1H-1,4-benzodiazepin-3-yl]-N′-[3-methylphenyl] urea] | > 3000 nM |
| Cc1cccc(NC(=O)NC2N=C(N3CCCN(C)CC3)c3ccccc3N(C)C2=O)c1 (racemic) [Example 17, N-[3(R,S)-2,3-Dihydro-1-methyl-5-(4-methylhomopiperazin-1-yl)-2-oxo-1H-1,4-benzodiazepin-3-yl]-N′-[3-methylphenyl] urea] | 2800 nM |
| CCNC(=O)c1cccc(NC(=O)NC2N=C(N3CCN(C)CC3)c3ccccc3N(C)C2=O)c1 (racemic) [Example 18, N-[3(R,S)-2,3-Dihydro-1-methyl-2-oxo-5-(4-methylpiperazin-1-yl)-1H-1,4-benzodiazepin-3-yl]-N′-[3-(N-ethylcarboxamido)phenyl] urea] | > 3000 nM |
| CCc1cccc(NC(=O)NC2N=C(N3CCCCC3)c3ccccc3N(C)C2=O)c1 (racemic) [Example 19, N-[3(R,S)-2,3-Dihydro-1-methyl-2-oxo-5-(piperidin-1-yl)-1H-1,4-benzodiazepin-3-yl]-N′-[3-ethylphenyl] urea] | 25 nM |
| Cc1cccc(NC(=O)NC2N=C(N3CCCCCC3)c3ccccc3N(C)C2=O)c1 (racemic) [Example 20, N-[3(R,S)-2,3-Dihydro-5-(homopiperidin-1-yl)-1-methyl-2-oxo-1H-1,4-benzodiazepin-3-yl]-N′-[3-methylphenyl] urea] | 10 nM |
| CCCN1C(=O)C(NC(=O)Nc2cccc(CC)c2)N=C(N2CCN(C)CC2)c2ccccc21 (racemic) [Example 21, N-[3(R,S)-2,3-Dihydro-5-(4-methylpiperazin-1-yl)-2-oxo-1-propyl-1H-1,4-benzodiazepin-3-yl]-N#MIN#-[3-ethylphenyl] urea] | 2400 nM |
| Cc1cccc(NC(=O)NC2N=C(N3CCN(C)CC3)c3ccccc3N(CC(C)C)C2=O)c1 (racemic) [Example 22, N-[3(R,S)-2,3-Dihydro-5-(4-methylpiperazin-1-yl)-1-(2-methylpropyl)-2-oxo-1H-1,4-benzodiazepin-3-yl]-N′-[3-methylphenyl] urea] | 1800 nM |
| CCc1cccc(NC(=O)NC2N=C(N3CCN(C)CC3)c3ccccc3N(CC(C)C)C2=O)c1 (racemic) [Example 23, N-[3(R,S)-2,3-Dihydro-5-(4-methylpiperazin-1-yl)-1-(2-methylpropyl)-2-oxo-1H-1,4-benzodiazepin-3-yl]-N′-[3-ethylphenyl] urea] | 2400 nM |
| CN1CCN(C2=NC(NC(=O)Nc3cccc(C(F)(F)F)c3)C(=O)N(C)c3ccccc32)CC1 (racemic) [Example 30, N-[3(R,S)-2,3-Dihydro-1-methyl-2-oxo-5-(4-methylpiperazin-1-yl)-1H-1,4-benzodiazepin-3-yl]-N′-[3-trifluoromethylphenyl] urea] | 2700 nM |
| CN1CCN(C2=NC(NC(=O)Nc3ccccc3)C(=O)N(C)c3ccccc32)CC1 (racemic) [Example 31, N-[3(R,S)-2,3-Dihydro-1-methyl-2-oxo-5-(4-methylpiperazin-1-yl)-1H-1,4-benzodiazepin-3-yl]-N′-phenyl urea] | 3450 nM |
